Structures can show the parent of a compound that is named as a salt. Where two headings read alike, the source gives them in different places.
Columns and labels:
A549 cells [1] = test: GSH-Glo glutathione level assay in A549 cells; type: cell-based, human; conditions: treated 48 hours, even at concentrations as low as 0.1 μM
Procedure: Cells were treated for 48 hours, and then glutathione levels were determined using a GSH-Glo assay kit and procedure from Promega.

A549 lung cancer cells = test: A549 xenograft study in athymic nude mice (Example 7), tumor volume; type: in vivo; conditions: combination of doxorubicin 2 mg/kg every 2 days and Compound 91 200 mg/kg every day
Procedure: (§1) A xenograph study was performed using A549 lung cancer cells to interrogate the in vivo synergy between a representative ROS-producing anti-cancer drug and a PKM2 activator. Mice (6-8 week old female athymic nude) were housed under standard conditions, and allowed food and water ad libitum and injected with 1×10^7 A549 cells per mouse.
(§2) Tumor volume and body weights were measured and recorded twice weekly (FIGS. 7A and 7B, respectively). Upon completion of the study, mice were euthanized and tumor tissues were harvested.

[2] = Body weight in A549 xenograft study (Example 7); type: in vivo; conditions: combination of doxorubicin 2 mg/kg every 2 days and Compound 91 200 mg/kg every day, athymic nude mice
Procedure: as §1, with “mouse. […] Compound 91 was administered orally at a concentration of 200 mg/kg every day.” for “mouse.”
as §2

[3] = tested on: A549 human lung cancer cells; test: Subcutaneous A549 human lung cancer xenograft model in BALB/c nude mice (Example 8); type: in vivo, Mus musculus; conditions: Group 2: Doxorubicin 2 mg/kg i.v. Q2D × 3 weeks + vehicle p.o.
Procedure: A549 human lung cancer cells were inoculated in BALB/c nude mice and treatment was initiated when tumors reached a mean volume of approximately 100 mm^3.
4.5 Randomization 60 mice were enrolled in the study. All animals were randomly allocated to the 6 different study groups. […] Randomization was performed based on “Matched distribution” randomization method using multi-task method (StudyDirector™ software, version 3.1.399.19) on day 13.
After tumor cell inoculation, the animals were checked daily for morbidity and mortality. At the time of routine monitoring, the animals were checked for any effects of tumor growth and treatments on behavior such as mobility, food and water consumption, body weight gain/loss (body weight was measured twice per week, or based on request after randomization), and any other abnormalities. Mortality and observed clinical signs were recorded for individual animals.
Tumor volumes were measured twice weekly in two dimensions using a caliper, and the volume was expressed in mm^3 using the formula: V=(L×W×W)/2, where V is tumor volume, L is tumor length (the longest tumor dimension) and W is tumor width (the longest tumor dimension perpendicular to L).
Tumor weight was measured at the end of study based on the protocol. Dosing as well as tumor and body weight measurement were conducted in a Laminar Flow Cabinet.
Statistical analysis of differences in mean tumor volume among the groups was conducted by Independent-Samples T Test using the data collected.
All data were analyzed with SPSS (Statistical Product and Service Solutions) version 18.0 (IBM, Armonk, N.Y., U.S.). […] All tests were two-sided. P<0.05 was considered to be statistically significant.

A549 cells [4] = test: Cell-titer-Glo cell viability, A549 cells; type: cell-based, human
PKM2 = PKM2 (Homo sapiens, UniProt P14618); test: PKM2 activation biochemical assay (AC50 / max. response vs fructose 1,6-bisphosphate); conditions: for Max. Resp. (%): % maximum response in a biochemical assay as compared with Fructose 1,6-bisphosphate; for AC50: biochemical assay, read-out: PKM2 AC50
Panc1 cells = test: Cell-titer-Glo cell viability, Panc1 cells; type: cell-based; conditions: Compound 91 at 4 μM
Procedure: A549 and Pancl cells were plated using 384-well plates at a density of 1,200 cells per well. Cells were plated in RPMI media and allowed to adhere for 24 hours at 37° C. […] Cells were also treated with Compound 91 alone as a control. Cell viability was determined according to the Cell-titer-Glo assay kit and protocol from Promega Biosciences, LLC (Madison, Wis.).
A549 and Panc1 cells were plated according to the procedure described in Example 1. Cells were treated using a concentration gradient of rapamycin (FIGS. 5A-B) or Vosaroxin (a TOPOII poison; FIG. 5C), both in the presence and absence of Compound 91 at a concentration of 4 μM in replicates of 7 per condition. Cell viability was determined using the Cell-titer-Glo assay kit according to the procedure described in the examples above.

[5] = Homo sapiens, A549 cells, anti-cancer drug alone, Cell-titer-Glo, read-out: EC50, cell viability

Chain of PKM2 (P14618 whole entry): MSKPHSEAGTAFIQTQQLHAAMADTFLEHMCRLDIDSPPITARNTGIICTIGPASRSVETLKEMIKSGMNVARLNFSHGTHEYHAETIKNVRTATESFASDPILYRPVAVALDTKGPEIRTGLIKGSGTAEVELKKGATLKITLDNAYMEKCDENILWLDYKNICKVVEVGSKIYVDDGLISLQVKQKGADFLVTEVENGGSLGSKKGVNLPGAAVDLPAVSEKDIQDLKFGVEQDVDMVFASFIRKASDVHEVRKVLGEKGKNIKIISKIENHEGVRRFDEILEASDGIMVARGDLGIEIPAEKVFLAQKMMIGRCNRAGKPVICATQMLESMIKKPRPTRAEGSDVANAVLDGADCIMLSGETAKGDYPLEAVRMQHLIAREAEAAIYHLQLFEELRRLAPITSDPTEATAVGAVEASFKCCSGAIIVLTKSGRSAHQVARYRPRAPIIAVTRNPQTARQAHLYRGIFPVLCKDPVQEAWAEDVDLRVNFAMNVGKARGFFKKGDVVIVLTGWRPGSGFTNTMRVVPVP

Max. Resp. (%) (PKM2) | AC50 (PKM2) [nM] | Compound | further results
 |  | Nc1cccc(F)c1CN(CCC1CCS(=O)(=O)CC1)C(=O)c1cc(C(F)(F)F)n[nH]1 [Compound 91] | glutathione levels (GSH-Glo) (A549 cells [1]): decreased levels of glutathione; tumor volume (A549 lung cancer cells): best reduction of tumor volume; body weight [2]: no significant body weight reduction or fluctuation
 |  | O=S(=O)(c1ccc2c(c1)OCCO2)N1CCN(S(=O)(=O)c2c(F)cccc2F)CC1 [DASA, reference compound] | glutathione levels (GSH-Glo) (A549 cells [1]): decreased levels of glutathione
 |  | COc1cccc2c1C(=O)c1c(O)c3c(c(O)c1C2=O)C[C@@](O)(C(=O)CO)C[C@@H]3O[C@H]1C[C@H](N)[C@H](O)[C@H](C)O1 [Doxorubicin, doxorubicin, reference compound] | Tumor Size (mm^3) on day 33 ([3]; Mean ± SEM): 723.15 ± 129.91 mm^3; Tumor Weight (mg) on day 33 ([3]; Mean ± SEM): 676.9 ± 107.8 mg; T/C (%) (tumor size) ([3]; day 33): 93%; T/C (%) (tumor weight) ([3]; day 33): 91%; TGI (%) (tumor size) ([3]; day 33): 7%; TGI (%) (tumor weight) ([3]; day 33): 9%
 |  | C=CCNc1c(O)cc2c(O)c1C[C@@H](C)C[C@H](OC)[C@H](O)[C@@H](C)/C=C(\C)[C@H](OC(N)=O)[C@@H](OC)/C=C\C=C(/C)C(=O)N2 [IPI-504, retaspimycin hydrochloride] | EC50 (A549 cells [4]; Homo sapiens, A549, read-out: EC50, cell viability): 59.9 nM
88 | 3930 | COc1ccccc1C(=O)CCSC(=S)NCc1cccnc1 [PMA18] | 
63 | 5610 | O=C(CCSC(=S)NCc1cccnc1)c1ccccc1Cl [PMA19] | 
42 | > 20000 | O=C(CCSC(=S)NCc1cccnc1)c1ccc(F)c(F)c1 [PMA21] | 
131 | 10100 | COc1cc(C(=O)CCSC(=S)NCc2cccnc2)cc(OC)c1OC [PMA22] | 
107 | 4300 | O=C(CCSC(=S)NCc1cccnc1)c1ccco1 [PMA25] | 
20 | > 20000 | O=C(CCSC(=S)NCc1cccnc1)c1cccs1 [PMA26] | 
126 | > 20000 | O=C(CCSC(=S)NCc1cccnc1)c1ccc[nH]1 [PMA27] | 
72 | 3560 | O=C(CCSC(=S)NCc1cccnc1)c1nccs1 [PMA28] | 
106 | 3700 | O=C(CCSC(=S)NCc1cccnc1)c1cccnc1 [PMA29] | 
 | > 20000 | O=C(CCSC(=S)NCc1cccnc1)c1c[nH]c2ccccc12 [PMA31] | 
182 | 1000 | O=C(CCSC(=S)NCc1cccnc1)c1c[nH]c2ncccc12 [PMA32] | 
101 | 18100 | O=C(CCSC(=S)NCc1cccnc1)c1cnc2ccccn12 [PMA33] | 
30 | 4340 | O=C(CCSC(=S)NCc1cccnc1)c1cc[nH]c1 [PMA35] | 
148 | 3500 | Cc1ccc2nc(Cn3c(Cc4ccccc4)nc4ccccc43)cc(=O)n2c1 [PP1] | 
73 |  | Cc1ccc2nc(Cn3c(C)nc4ccccc43)cc(=O)n2c1 [PP2] | 

Max. Resp. (%) (PKM2) | AC50 (PKM2) [nM] | Compound | further results
149 | 755 | Cc1ccc2nc(Cn3cnc4ccccc43)cc(=O)n2c1 [PP3] | 
161 | 340 | O=c1cc(Cn2cnc3ccccc32)nc2ccccn12 [PP4] | 
 | 159 | Cc1cccc2nc(Cn3cnc4ccccc43)cc(=O)n12 [PP8] | glutathione levels (GSH-Glo) (A549 cells [1]): decreased levels of glutathione
 | 216 | Cc1ccn2c(=O)cc(Cn3cnc4ccccc43)nc2c1 [PP9] | 
 | 219 | O=c1cc(Cn2cnc3ccccc32)nc2ccc(Cl)cn12 [PP10] | 
 | 120 | CCc1ccc(C)n2c(=O)cc(Cn3cnc4ccccc43)nc12 [PP11] | 
 | 470 | COc1ccc2nc(Cn3cnc4ccccc43)cc(=O)n2c1 [PP12] | 
 | 145 | Cc1cccn2c(=O)cc(Cn3cnc4ccccc43)nc12 [PP13] | 
 | 86 | Cc1sc2nc(Cn3cnc4ccccc43)cc(=O)n2c1C [PP14] | 
 | 1030 | O=c1cc(Cn2cnc3ccccc32)nc2scc(-c3ccccc3)n12 [PP15] | 
 | 127 | Cc1csc2nc(Cn3cnc4ccccc43)cc(=O)n12 [PP16] | 
 | 466 | Cc1cn2c(=O)cc(Cn3cnc4ccccc43)nc2s1 [PP17] | 
 | 266 | O=c1cc(Cn2cnc3ccccc32)nc2sccn12 [PP18] | 
 | 4760 | CCc1nn2c(=O)cc(Cn3cnc4ccccc43)nc2s1 [PP19] | 
108 | 153 | COc1cccc(NS(=O)(=O)c2cc3c(cc2Cl)NC(=O)CO3)c1 [PP20] | 
 |  | CN[C@H]1CN(c2ccc3c(=O)c(C(=O)O)cn(-c4nccs4)c3n2)C[C@@H]1OC [Vosaroxin] | cell viability: activity in presence vs absence of Compound 91 (A549 cells [4]; A549 cells, Compound 91 at 4 μM, Cell-titer-Glo): no significant change; cell viability: activity in presence vs absence of Compound 91 (Panc1 cells): no significant change
 |  | CC(C)C[C@H](NC(=O)[C@H](Cc1ccccc1)NC(=O)c1cnccn1)B(O)O [bortezomib] | decrease in EC50 when used in combination with Compound 91 (A549 cells [4]; A549 cells, Compound 91 at 4 μM vs drug alone): ~2 fold; EC50 (A549 cells [4]; [5]): 43.4 nM; EC50 (A549 cells [4]; Homo sapiens, A549 cells, in the presence of Compound 91 at 4 μM, Cell-titer-Glo, read-out: EC50, cell viability, in combination with Compound 91): 27 nM
 |  | CNC(=O)c1cc(Oc2ccc(NC(=O)Nc3ccc(Cl)c(C(F)(F)F)c3)cc2)ccn1 [sorafenib] | EC50 (A549 cells [4]; A549 cells, in the presence of Compound 91 at 4 μM, Cell-titer-Glo, read-out: EC50, cell viability, in combination with Compound 91): 7130 nM; EC50 (A549 cells [4]; [5]): 30100 nM

Reference: patent US20200237766A1, “PKM2 ACTIVATORS IN COMBINATION WITH REACTIVE OXYGEN SPECIES FOR TREATMENT OF CANCER” (TOLERO PHARMACEUTICALS, INC., priority 2017, published 2020)
